This assay concerns the target T1, CRF1 receptors (Homo sapiens, UniProt P34998).
T1 construct: endogenous in cells; host or cells: IMR-32 cells, transformed with 2.5 µM 5'-bromo-2'-deoxyuridine for 10 days; membrane preparation
T1 sequence (P34998 24-415): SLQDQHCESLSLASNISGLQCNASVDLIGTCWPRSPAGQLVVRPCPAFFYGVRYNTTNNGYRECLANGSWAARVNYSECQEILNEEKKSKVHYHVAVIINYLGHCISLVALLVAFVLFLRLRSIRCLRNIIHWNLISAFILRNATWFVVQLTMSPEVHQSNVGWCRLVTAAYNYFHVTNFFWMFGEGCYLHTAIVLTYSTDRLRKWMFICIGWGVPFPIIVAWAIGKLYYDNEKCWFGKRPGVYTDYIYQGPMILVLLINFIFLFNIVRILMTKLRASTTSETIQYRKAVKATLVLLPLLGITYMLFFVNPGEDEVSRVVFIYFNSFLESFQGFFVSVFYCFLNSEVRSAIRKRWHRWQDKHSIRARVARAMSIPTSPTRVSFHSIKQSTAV
Nature of the assay: CRF1 receptor radioligand binding assay ([125I]-oCRF competition, IMR-32 cell membranes). The conditions noted are these: IMR-32 cell membranes, [125I]-oCRF 100 pM; read-out: Ki (CRF-1R). The method, then: CRF1 receptor antagonists, by occupying the same receptors, blocks the accessibility of the receptors to CRF, a hypothalamic factor mediating body's responses to physiological and psychological stress. The following radioligand binding assay examines the ability of the antagonists to bind the CRF1 receptors by assessing their ability to compete with binding of CRF to the receptors in cell membrane.
Tissue culture and membrane preparation. IMR-32 cells were grown at 37° C. in 5% CO2 as a monolayer in medium consisting of MEM supplemented with 10% heat-inactivated fetal bovine serum, 0.1 mM nonessential amino acids, 1 mM sodium pyruvate and 2 mM L-glutamine. […] After transformation, cells were rinsed twice with phosphate-buffered saline, and incubated for 10–15 min. at 4° C. in homogenization buffer consisting of 50 mM Tris (pH 7.2), 10 mM MgCl2 and 2 mM EGTA. Cells were transferred from plates to polypropylene tubes (16×100 mm), homogenized and centrifuged at 32,000×g for 15 min. Pellets were resuspended by homogenization in buffer and centrifuged at 32,000×g for 15 min. Pellets were resuspended in homogenization buffer then stored at −80° C. until needed.
Radioligand binding assays. […] The assay buffer consisted of 50 mM Tris (pH 7.2), 10 mM MgCl2, 0.5% BSA, 0.005% Triton X-100, 10 μg/mL aprotinin and 10 μg/mL leupeptin. Assays were stopped by addition of ice-cold wash buffer (50 mM Tris, pH 7.4 and 0.2% BSA). Filtration over glass fiber filters (Whatman GF/B) previously soaked in 50 mM Tris, pH 7.2 and 1% BSA was carried out using a Brandel cell harvester. Filters were washed with 10 mL of ice-cold wash buffer. Non-specific binding was defined with 10 μM oCRF. IC50 values for oCRF and test compounds were calculated by nonlinear regression using a one-site binding curve (GraphPad Prism).

A value given as a limit tells only on which side of the number the result lay.

Regarding `CCCN(CCc1ccccc1)Cc1c(C(F)(F)F)nc2n1CCCN2c1c(C)cc(C)cc1C` [Example 83, Phenethyl-propyl-[2-trifluoromethyl-8-(2,4,6-trimethyl-phenyl)-5,6,7,8-tetrahydro-imidazo[1,2-a]pyrimidin-3-ylmethyl]-amine], the inhibition constant (Ki) is < 0.1 µM.

As for `CCCN(Cc1ccccc1)Cc1c(C(F)(F)F)nc2n(-c3ccc(C(C)C)cc3Br)c3ccccc3n12` [Example 209, Benzyl-[8-(2-bromo-4-isopropyl-phenyl)-2-trifluoromethyl-8H-1,3a,8-triaza-cyclopenta[α]inden-3-ylmethyl]-propyl-amine], the inhibition constant Ki was < 10 µM.

Take `Cc1cc(C)c(-n2c(Cl)cn3c(CN(CCC(F)(F)F)Cc4cccc(F)c4)c(C(F)(F)F)nc23)c(C)c1` [Example 343, [6-Chloro-2-trifluoromethyl-7-(2,4,6-trimethyl-phenyl)-7H-imidazo[1,2-a]imidazol-3-ylmethyl]-(3-fluoro-benzyl)-(3,3,3-trifluoro-propyl)-amine]: the Ki is < 0.1 µM.

Consider `CCN(Cc1ccccc1)Cc1c(C(F)(F)F)nc2n(-c3ccc(C(C)C)cc3Br)c3ccccc3n12` [Example 208, Benzyl-[8-(2-bromo-4-isopropyl-phenyl)-2-trifluoromethyl-8H-1,3a,8-triaza-cyclopenta[α]inden-3-ylmethyl]-ethyl-amine], for which the Ki was < 10 µM.

As to `CCCN(CCc1ccccc1)C(=O)c1c(C)nc2n1CCCN2c1c(C)cc(C)cc1C` [Example 56, 2-Methyl-8-(2,4,6-trimethyl-phenyl)-5,6,7,8-tetrahydro-imidazo[1,2-a]pyrimidine-3-carboxylic acid phenethyl-propyl-amide], the inhibitory constant (Ki) is < 10 µM.

On to `CC(C)c1ccc(-n2c3ccccc3n3c(CN(CC4CC4)CC(F)(F)F)c(C(F)(F)F)nc23)c(Br)c1` [Example 188, [8-(2-Bromo-4-isopropyl-phenyl)-2-trifluoromethyl-8H-1,3a,8-triaza-cyclopenta[α]inden-3-ylmethyl]-cyclopropylmethyl-(2,2,2-trifluoro-ethyl)-amine], for which the inhibition constant (Ki) was < 0.1 µM.

On to `CCCN(Cc1ccccc1)Cc1c(C(F)(F)F)nc2n(-c3c(C)cc(C)cc3C)c3ncccc3n12` [Example 236, Benzyl-propyl-[2-trifluoromethyl-8-(2,4,6-trimethyl-phenyl)-8H-1,3a,7,8-tetraaza-cyclopenta[α]inden-3-ylmethyl]-amine], for which the Ki is < 10 µM.

Take `CCN(CCc1ccccc1)Cc1c(C(F)(F)F)nc2n(-c3ccc(C(C)C)cc3Br)c3ccccc3n12` [Example 196, [8-(2-Bromo-4-isopropyl-phenyl)-2-trifluoromethyl-8H-1,3a,8-triaza-cyclopenta[α]inden-3-ylmethyl]-ethyl-phenethyl-amine]: the inhibition constant Ki was < 1 µM.

On to `Cc1cc(C)c(N2CCCn3c2nc(C(F)(F)F)c3CN(CCC(F)(F)F)Cc2ccc(Cl)cc2)c(Cl)c1` [Example 128, (4-Chloro-benzyl)-[8-(2-chloro-4,6-dimethyl-phenyl)-2-trifluoromethyl-5,6,7,8-tetrahydro-imidazo[1,2-a]pyrimidin-3-ylmethyl]-(3,3,3-trifluoro-propyl)-amine], for which the inhibitory constant (Ki) was < 1 µM.

In the case of `CCCN(CC1CC1)C(=O)c1c(C)nc2n(-c3ccc(Cl)cc3Cl)c3ccccc3n12` [Example 143, 8-(2,4-Dichloro-phenyl)-2-methyl-8H-1,3a,8-triaza-cyclopenta[a]indene-3-carboxylic acid cyclopropylmethyl-propyl-amide], the Ki was < 10 µM.

On to `CCN(CCc1ccccc1)Cc1c(C(F)(F)F)nc2n(-c3c(C)cc(C)cc3C)c3ccccc3n12` [Example 163, Ethyl-phenethyl-[2-trifluoromethyl-8-(2,4,6-trimethyl-phenyl)-8H-1,3a,8-triaza-cyclopenta[α]inden-3-ylmethyl]-amine], for which the inhibition constant (Ki) was < 1 µM.

`Cc1cc(C)c(-n2c3ccccc3n3c(CN(CC4CC4)CC4CC4)c(C(F)(F)F)nc23)c(C)c1` [Example 151, Bis-cyclopropylmethyl-[2-trifluoromethyl-8-(2,4,6-trimethyl-phenyl)-8H-1,3a,8-triaza-cyclopenta[α]inden-3-ylmethyl]-amine]: the Ki was < 0.1 µM.

For the molecule `Cc1cc(C)c(-n2c(Cl)cn3c(CN4CCCC4Cc4ccccc4)c(C(F)(F)F)nc23)c(C)c1` (stereo not drawn) [Example 316, 5-(2-Benzyl-pyrrolidin-1-ylmethyl)-2-chloro-6-trifluoromethyl-1-(2,4,6-trimethyl-phenyl)-1H-imidazo[1,2-a]imidazole], the Ki was < 1 µM.

`CCCCN(Cc1ccccc1)Cc1c(C(F)(F)F)nc2n(-c3c(C)cc(C)cc3C)c(Cl)cn12` [Example 311, Benzyl-butyl-[6-chloro-2-trifluoromethyl-7-(2,4,6-trimethyl-phenyl)-7H-imidazo[1,2-a]imidazol-3-ylmethyl]-amine]: the Ki is < 1 µM.

Regarding `CCc1nc2n(-c3c(C)cc(C)cc3C)c(Cl)cn2c1C(=O)N(CC)Cc1ccncc1` [Example 297, 6-Chloro-2-ethyl-7-(2,4,6-trimethylphenyl)-7H-imidazo[1,2-a]imidazole-3-carboxylic acid N-ethyl-N-(pyridin-4-yl)methylamide], the Ki was < 1 µM.

With `CCCN(Cc1c(C(F)(F)F)nc2n(-c3ccc(Cl)cc3Cl)c3ccccc3n12)CC1CC1` [Example 178, Cyclopropylmethyl-[8-(2,4-dichloro-phenyl)-2-trifluoromethyl-8H-1,3a,8-triaza-cyclopenta[α]inden-3-ylmethyl]-propyl-amine], the Ki was < 1 µM.

On to `Cc1cc(C)c(N2CCCn3c2nc(C(F)(F)F)c3CN(CC2CC2)CC(F)(F)F)c(C)c1` [Example 73, Cyclopropylmethyl-(2,2,2-trifluoro-ethyl)-[2-trifluoromethyl-8-(2,4,6-trimethyl-phenyl)-5,6,7,8-tetrahydro-imidazo[1,2-a]pyrimidin-3-ylmethyl]-amine], for which the Ki was < 0.01 µM.

For `CCc1nc2n(-c3ccc(Cl)cc3Cl)c(Cl)cn2c1CN(CC1CC1)CC(F)(F)F` [Example 289, 3-[(N-Cyclopropylmethyl-N-(2,2,2-trifluoroethyl)amino)methyl]-6-chloro-2-ethyl-7-(2,4-diclorophenyl)-7H-imidazo[1,2-a]imidazole], the Ki was < 0.1 µM.

As to `Cc1cc(C)c(-n2c3ncccc3n3c(CN(CC4CC4)CC(F)(F)C(F)(F)F)c(C(F)(F)F)nc23)c(C)c1` [Example 212, Cyclopropylmethyl-(2,2,3,3,3-pentafluoro-propyl)-[2-trifluoromethyl-8-(2,4,6-trimethyl-phenyl)-8H-1,3a,7,8-tetraaza-cylopenta[α]inden-3-ylmethyl]-amine], the inhibition constant (Ki) was < 0.1 µM.

As for `CCc1nc2n(-c3c(C)cc(C)cc3C)c(Cl)cn2c1CN(CC)CC1CC1` [Example 299, 3-[(N-Cyclopropylmethyl-N-ethylamino)methyl]-6-chloro-2-ethyl-7-(2,4,6-trimethylphenyl)-7H-imidazo[1,2-a]imidazole], the inhibition constant (Ki) is < 0.1 µM.

In the case of `Cc1cc(C)c(N2CCCn3c2nc(C(F)(F)F)c3CN(CCC2CC2)CC(F)(F)F)c(Cl)c1` [Example 126, [8-(2-Chloro-4,6-dimethyl-phenyl)-2-trifluoromethyl-5,6,7,8-tetrahydro-imidazo[1,2-a]pyrimidin-3-ylmethyl]-(2-cyclopropyl-ethyl)-(2,2,2-trifluoro-ethyl)-amine], the inhibitory constant (Ki) is < 1 µM.

For the molecule `C=C(C)CN(CC)Cc1c(C(F)(F)F)nc2n1CCCN2c1c(C)cc(C)cc1Cl` [Example 106, [8-(2-Chloro-4,6-dimethyl-phenyl)-2-trifluoromethyl-5,6,7,8-tetrahydro-imidazo[1,2-a]pyrimidin-3-ylmethyl]-ethyl-(2-methyl-allyl)-amine], the inhibition constant Ki was < 1 µM.

On to `Cc1cc(C)c(N2CCCn3c2nc(C(F)(F)F)c3CN2CC=CCC2)c(C)c1` [Example 60, 3-(3,6-Dihydro-2H-pyridin-1-ylmethyl)-2-trifluoromethyl-8-(2,4,6-trimethyl-phenyl)-5,6,7,8-tetrahydro-imidazo[1,2-a]pyrimidine], for which the Ki is < 1 µM.

Take `CCCN(Cc1c(C)nc2n(-c3c(C)cc(C)cc3C)c(Cl)cn12)CC1CC1` [Example 284, [6-Chloro-2-methyl-7-(2,4,6-trimethyl-phenyl)-7H-imidazo[1,2-a]imidazol-3-ylmethyl]-cyclopropylmethyl-propyl-amine]: the Ki was < 0.1 µM.

For the origin of these results see patent publication US7125990B2, “Imidazolyl derivatives as corticotropin releasing factor inhibitors” (Bristol-Myers Squibb COmpany, priority 2001, dated 2006).
